Results published in patent publication US20220400680A1, “USE OF ACYLCYANAMIDES OR SALTS THEREOF FOR REGULATING PLANT GROWTH” (Alzchem Trostberg GmbH, priority 2019, published 2022).

What was measured:
[1] = tested on: Table apple, type Zabergäu-Renette (C2); test: Greenhouse test, cut apple branches C2 dipped in test solution, bud development stage; assay type: in vivo, Malus domestica; set-up: key to Bud development stage, apple branches C2: Stage 0: Buds unchanged; Stage 1: Buds slightly swollen, first green tips visible; Stage 2: strongly swollen, green buds; Stage 3: Buds before breaking open, leaf or flower root already visible; Stage 4: Flower buds fully developed, but still closed, white petals already visible. In the case of the grapevine, stage 4 was the unfolding of the first leaves; Stage 5: Flowers fully open or, in the case of grapevine, unfolding of the flower roots (“Gescheine”) on the fully leafed sprouts
Experimental: Greenhouse tests were conducted using cut fruit tree branches placed in water jars and maintained under controlled conditions with temperature regulation at approximately 22° C. and natural lighting. C2: Table Apple, Type […] Table apple: Malus domestica type […] first developed in 1885 as a chance seedling in Hausen a.d. Zaber/Baden-Württemberg and initially grown as 'Hausener Graue […]'. No defined storage type; requires heavy soils (loam). Tree growth initially strong with oblique upright leading branches, later medium with flat branches. Crown broad and flat-spherical with flat fruiting wood. Leaves large, broad oval and with clearly separated tip. Triploid type with late and long-lasting flowering. Yield starting early, medium high and somewhat alternate. […] The test solutions were prepared directly, i.e. without intermediate preparation of a concentrate. For each of the test substances A-1 to A-13, an aqueous solution of 0.15 mol of the test substance and 0.15 g BreakThru® OE-446 was prepared and filled up to a total of 500 g with water. Of bis-cyanamides A-14 and A-15, 0.075 mol each was filled up to 500 g in an analogous manner. These test solutions (in combination with the above 4 species/types Cx) were given the test numbers Cx-A1 to Cx-A15. […] This was done with the following evaluation scale: • Stage 0: […] Flower buds fully developed, but still closed, white petals already visible. […] Flowers fully open or, in the case of grapevine, unfolding of the flower roots (“[…]”) on the fully leafed sprouts.

[2] = tested on: Table apple, type Boiken apple (C1); test: Greenhouse test, cut apple branches C1 dipped in test solution, bud development stage; assay type: in vivo, Malus domestica; set-up: key to Bud development stage, apple branches C1: Stage 0: Buds unchanged; Stage 1: Buds slightly swollen, first green tips visible; Stage 2: strongly swollen, green buds; Stage 3: Buds before breaking open, leaf or flower root already visible; Stage 4: Flower buds fully developed, but still closed, white petals already visible. In the case of the grapevine, stage 4 was the unfolding of the first leaves; Stage 5: Flowers fully open or, in the case of grapevine, unfolding of the flower roots (“Gescheine”) on the fully leafed sprouts; details: for Dormancy-breaking effect according to the definition, apple C1: stage 4 reached or exceeded after 36 days vs negative control
Experimental: Greenhouse tests were conducted using cut fruit tree branches placed in water jars and maintained under controlled conditions with temperature regulation at approximately 22° C. and natural lighting. C1: Table Apple, Type Boiken Apple Table apple: Malus domestica type Boiken first described in 1828 in Bremen after Deichvogt Boiken. Apple type for rough locations and for almost every soil suitable scattered fruit type, whereby heavy soils and not too warm locations are required. Tree growth initially strong, later medium. Older crowns become broadly spherical and are loosely branched. Flowering starting medium-late and long lasting, petals large with little pink. Yield starting late (October) and irregular; with long shelf life and pressure resistance. […] The test solutions were prepared directly, i.e. without intermediate preparation of a concentrate. For each of the test substances A-1 to A-13, an aqueous solution of 0.15 mol of the test substance and 0.15 g BreakThru® OE-446 was prepared and filled up to a total of 500 g with water. Of bis-cyanamides A-14 and A-15, 0.075 mol each was filled up to 500 g in an analogous manner. These test solutions (in combination with the above 4 species/types Cx) were given the test numbers Cx-A1 to Cx-A15. […] This was done with the following evaluation scale: • Stage 0: […] Flower buds fully developed, but still closed, white petals already visible. […] Flowers fully open or, in the case of grapevine, unfolding of the flower roots (“[…]”) on the fully leafed sprouts.

[3] = tested on: Grape, type Pinot Noir (C4); test: Greenhouse test, cut wine sprouts C4 dipped in test solution, bud development stage; assay type: in vivo, Vitis vinifera subsp. vinifera; set-up: key to Bud development stage, wine sprouts C4: Stage 0: Buds unchanged; Stage 1: Buds slightly swollen, first green tips visible; Stage 2: strongly swollen, green buds; Stage 3: Buds before breaking open, leaf or flower root already visible; Stage 4: Flower buds fully developed, but still closed, white petals already visible. In the case of the grapevine, stage 4 was the unfolding of the first leaves; Stage 5: Flowers fully open or, in the case of grapevine, unfolding of the flower roots (“Gescheine”) on the fully leafed sprouts; details: for Dormancy-breaking effect according to the definition, wine C4: stage 4 reached or exceeded after 36 days vs negative control
Experimental: Greenhouse tests were conducted using cut fruit tree branches placed in water jars and maintained under controlled conditions with temperature regulation at approximately 22° C. and natural lighting. C4: Grape, Type Pinot Noir Grape: Vitis vinifera subsp. vinifera type Pinot Noir is an important and high quality red wine type that has existed for possibly 2000 years. It is cultivated all over the world because the type produces high quality red wines and has sufficient winter frost resistance. The type requires early and good areas with deep, warm, medium-heavy and fertile soils with good water supply. Pinot Noir produces regular, medium-high to high yields. However, there are a large number of clones that differ in yield, berry size and looseness. […] The test solutions were prepared directly, i.e. without intermediate preparation of a concentrate. For each of the test substances A-1 to A-13, an aqueous solution of 0.15 mol of the test substance and 0.15 g BreakThru® OE-446 was prepared and filled up to a total of 500 g with water. Of bis-cyanamides A-14 and A-15, 0.075 mol each was filled up to 500 g in an analogous manner. These test solutions (in combination with the above 4 species/types Cx) were given the test numbers Cx-A1 to Cx-A15. […] This was done with the following evaluation scale: • Stage 0: […] Flower buds fully developed, but still closed, white petals already visible. […] Flowers fully open or, in the case of grapevine, unfolding of the flower roots (“[…]”) on the fully leafed sprouts.

[4] = tested on: Table cherry, type Burlat (C3); test: Greenhouse test, cut cherry branches C3 dipped in test solution, bud development stage; assay type: in vivo, Prunus avium; set-up: key to Bud development stage, cherry branches C3: Stage 0: Buds unchanged; Stage 1: Buds slightly swollen, first green tips visible; Stage 2: strongly swollen, green buds; Stage 3: Buds before breaking open, leaf or flower root already visible; Stage 4: Flower buds fully developed, but still closed, white petals already visible. In the case of the grapevine, stage 4 was the unfolding of the first leaves; Stage 5: Flowers fully open or, in the case of grapevine, unfolding of the flower roots (“Gescheine”) on the fully leafed sprouts; details: for Good to very good dormancy-breaking effect, cherry C3: stage 4 reached or exceeded after 21 days vs negative control; for Dormancy-breaking effect according to the definition, cherry C3: stage 4 reached or exceeded after 27 days vs negative control
Experimental: Greenhouse tests were conducted using cut fruit tree branches placed in water jars and maintained under controlled conditions with temperature regulation at approximately 22° C. and natural lighting. C3: Table Cherry, Type Burlat Table cherry: Prunus avium type Bigarreau Burlat or […] is a strong-growing somewhat sparse growing sweet cherry tree with horizontal side sprouts. The type has been known since 1930 and is one of the most important types in commercial cultivation. […] Medium but regular yields identify the type as a secondary type for early and dry areas. […] The test solutions were prepared directly, i.e. without intermediate preparation of a concentrate. For each of the test substances A-1 to A-13, an aqueous solution of 0.15 mol of the test substance and 0.15 g BreakThru® OE-446 was prepared and filled up to a total of 500 g with water. Of bis-cyanamides A-14 and A-15, 0.075 mol each was filled up to 500 g in an analogous manner. These test solutions (in combination with the above 4 species/types Cx) were given the test numbers Cx-A1 to Cx-A15. […] This was done with the following evaluation scale: • Stage 0: […] Flower buds fully developed, but still closed, white petals already visible. […] Flowers fully open or, in the case of grapevine, unfolding of the flower roots (“[…]”) on the fully leafed sprouts.

[5] = T1 (14 d), 0.15 mol (A-14, A-15: 0.075 mol) per 500 g solution

Row | SMILES | Bud development stage, apple branches C2 [1, 5] | Bud development stage, apple branches C2 ([1]; T2 (16 d)) | Bud development stage, apple branches C2 ([1]; T3 (21 d)) | Bud development stage, apple branches C2 ([1]; T4 (27 d)) | Bud development stage, apple branches C2 ([1]; T5 (36 d)) | Bud development stage, apple branches C2 ([1]; T6 (56 d)) | Bud development stage, apple branches C1 [2, 5] | Bud development stage, apple branches C1 ([2]; T2 (16 d)) | Bud development stage, apple branches C1 ([2]; T3 (21 d)) | Bud development stage, apple branches C1 ([2]; T4 (27 d)) | Bud development stage, apple branches C1 ([2]; T5 (36 d)) | Bud development stage, apple branches C1 ([2]; T6 (56 d)) | Dormancy-breaking effect according to the definition, apple C1 [2] | Bud development stage, wine sprouts C4 [3, 5] | Bud development stage, wine sprouts C4 ([3]; T2 (16 d)) | Bud development stage, wine sprouts C4 ([3]; T3 (21 d)) | Bud development stage, wine sprouts C4 ([3]; T4 (27 d)) | Bud development stage, wine sprouts C4 ([3]; T5 (36 d)) | Bud development stage, wine sprouts C4 ([3]; T6 (56 d)) | Bud development stage, cherry branches C3 [4, 5] | further results
1 | CCCCCCCCCCCC(=O)NC#N.[Na] [Example A-10, Sodium dodecanoyl cyanamide] | 0 | 0 | 0 | 1 | 2 | 4 | 1 | 2 | 4 | 5 | 5 | 5 | dormancy-breaking effect | 0 | 0 | 0 | 1 | 2 | 4 | 1 | Good to very good dormancy-breaking effect, apple C1 ([2]; stage 4 reached or exceeded after 27 days vs negative control): good to very good dormancy-breaking effect; Bud development stage, cherry branches C3 ([4]; T2 (16 d)): 2; Bud development stage, cherry branches C3 ([4]; T3 (21 d)): 4; Bud development stage, cherry branches C3 ([4]; T4 (27 d)): 4; Bud development stage, cherry branches C3 ([4]; T5 (36 d)): 4; Bud development stage, cherry branches C3 ([4]; T6 (56 d)): 5; Good to very good dormancy-breaking effect, cherry C3 [4]: good to very good dormancy-breaking effect; Dormancy-breaking effect according to the definition, cherry C3 [4]: dormancy-breaking effect
2 | N#CNC(=O)Cc1ccccc1.[Na] [Example A-12, Sodium phenylacetyl cyanamide] | 0 | 0 | 3 | 3 | 4 | 5 | 0 | 1 | 2 | 2 | 5 | 5 | dormancy-breaking effect | 0 | 0 | 1 | 3 | 4 | 4 | 0 | Dormancy-breaking effect according to the definition, apple C2 ([1]; stage 4 reached or exceeded after 36 days vs negative control): dormancy-breaking effect; Dormancy-breaking effect according to the definition, wine C4 [3]: dormancy-breaking effect; Bud development stage, cherry branches C3 ([4]; T2 (16 d)): 1; Bud development stage, cherry branches C3 ([4]; T3 (21 d)): 2; Bud development stage, cherry branches C3 ([4]; T4 (27 d)): 5; Bud development stage, cherry branches C3 ([4]; T5 (36 d)): 5; Bud development stage, cherry branches C3 ([4]; T6 (56 d)): 5; Dormancy-breaking effect according to the definition, cherry C3 [4]: dormancy-breaking effect
3 | N#CNC(=O)CCC(=O)NC#N.[Na].[Na] [Example A-14, Disodium-(3-(cyano-amidocarbonyl)-propionyl-cyanamide)] | 0 | 0 | 0 | 1 | 3 | 4 | 1 | 1 | 2 | 3 | 5 | 5 | dormancy-breaking effect | 0 | 0 | 0 | 2 | 4 | 4 | 0 | Dormancy-breaking effect according to the definition, wine C4 [3]: dormancy-breaking effect; Bud development stage, cherry branches C3 ([4]; T2 (16 d)): 1; Bud development stage, cherry branches C3 ([4]; T3 (21 d)): 4; Bud development stage, cherry branches C3 ([4]; T4 (27 d)): 5; Bud development stage, cherry branches C3 ([4]; T5 (36 d)): 5; Bud development stage, cherry branches C3 ([4]; T6 (56 d)): 5; Good to very good dormancy-breaking effect, cherry C3 [4]: good to very good dormancy-breaking effect; Dormancy-breaking effect according to the definition, cherry C3 [4]: dormancy-breaking effect
